Key:
[1] = target: Recombinant human TDO comprising amino acids 19-407 (Homo sapiens (Human), UniProt P48775); experiment: TDO2 enzymatic assay (TDO inhibitory activity); assay type: biochemical; settings: 15 nM enzyme, 200 μM L-tryptophan, pH7, 30 min pre-incubation, NFK quantified by LCMS; mean values if measured multiple times; read-out: hTDO activity (IC50 in nM)
Method in brief: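 His-tagged enzyme (15 nM, E. coli-expressed) in pH 7 phosphate buffer with ascorbate, catalase, BSA, Tween 20, 0.6% DMSO; 30 min RT pre-incubation with compound (10 μM–0.5 nM), then 200 μM L-tryptophan for 30 min RT. N′-formylkynurenine quantified by LCMS against deuterated tryptophan; IC50 by four-parameter fit, duplicates.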

[2] = target: Recombinant full-length human IDO1 (Homo sapiens (Human), UniProt P14902); experiment: IDO1 enzymatic assay (IDO inhibitory activity); assay type: biochemical; settings: 2 nM enzyme, 5 μM L-tryptophan, pH6.5, 30 min pre-incubation, NFK quantified by LCMS; mean values if measured multiple times; read-out: hIDO activity (IC50 in nM)
Recombinant full-length human IDO1, sequence (P14902 whole entry): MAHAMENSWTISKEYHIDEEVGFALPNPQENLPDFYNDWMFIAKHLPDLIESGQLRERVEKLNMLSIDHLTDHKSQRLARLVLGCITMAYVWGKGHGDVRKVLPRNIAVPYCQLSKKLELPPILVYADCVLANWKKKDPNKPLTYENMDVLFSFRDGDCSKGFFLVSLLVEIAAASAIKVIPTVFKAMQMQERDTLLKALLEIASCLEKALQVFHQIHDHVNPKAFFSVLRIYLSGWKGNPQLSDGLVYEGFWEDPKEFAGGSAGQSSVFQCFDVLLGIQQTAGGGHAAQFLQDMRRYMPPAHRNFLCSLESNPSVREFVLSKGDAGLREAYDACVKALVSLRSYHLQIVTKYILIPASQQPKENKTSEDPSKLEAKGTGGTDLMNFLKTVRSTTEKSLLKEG
Method in brief: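 N-His-tagged enzyme from E. coli at 2 nM in 37.5 mM phosphate pH6.5 with ascorbate, methylene blue, catalase; compounds 10 μM–0.5 nM, 0.6% DMSO, pre-incubated 30 min RT, then 5 μM L-tryptophan for 30 min RT. NFK quantified by LCMS against d5-tryptophan; IC50 from duplicate four-parameter fit, means where repeated.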

Recombinant human TDO comprising amino acids 19-407, sequence (P48775 19-406 limits assumed): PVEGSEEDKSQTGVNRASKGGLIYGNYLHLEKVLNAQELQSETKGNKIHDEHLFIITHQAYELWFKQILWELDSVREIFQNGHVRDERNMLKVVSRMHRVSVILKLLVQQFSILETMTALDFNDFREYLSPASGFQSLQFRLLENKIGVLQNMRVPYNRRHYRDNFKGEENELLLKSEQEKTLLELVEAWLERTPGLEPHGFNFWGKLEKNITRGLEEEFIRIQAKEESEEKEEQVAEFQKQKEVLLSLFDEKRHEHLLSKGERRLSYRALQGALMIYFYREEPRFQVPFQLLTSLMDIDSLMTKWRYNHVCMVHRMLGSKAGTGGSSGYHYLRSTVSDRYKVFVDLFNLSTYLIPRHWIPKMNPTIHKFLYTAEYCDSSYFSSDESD

## O[C@@H](CC1CCCC1)c1c(C2CC2)sc2cncn12 [Example 24a, (S)-2-Cyclopentyl-1-(2-cyclopropyl-imidazo[5,1-b]thiazol-3-yl)-ethanol]
[1]
  IC50: 356 nM
[2]
  IC50: 20.5 nM

## OC(c1c(C2CC2)sc2cncn12)C1CCC1 (racemic) [Example 43, rac-Cyclobutyl-(2-cyclopropyl-imidazo[5,1-b]thiazol-3-yl)-methanol]
[1]
  IC50: 907 nM
[2]
  IC50: 25.1 nM

## OC(c1c(C2CC2)sc2cncn12)C1CCC(C(F)(F)F)CC1 (racemic) [Example 81, rac-(2-Cyclopropyl-imidazo[5,1-b]thiazol-3-yl)-(4-trifluoromethyl-cyclohexyl)-methanol]
[1]
  IC50: 772 nM
[2]
  IC50: 43.3 nM

## CC1([C@H](O)c2c(C3CC3)sc3cncn23)CCCC1 [Example 48a, (S)-(2-Cyclopropyl-imidazo[5,1-b]thiazol-3-yl)-(1-methyl-cyclopentyl)-methanol]
[1]
  IC50: 42.5 nM
[2]
  IC50: 4.37 nM

## OC(c1c(Cc2ccccc2)sc2cncn12)C1CCCCC1 (racemic) [Example 154, rac-(2-Benzyl-imidazo[5,1-b]thiazol-3-yl)-cyclohexyl-methanol]
[1]
  IC50: 4270 nM
[2]
  IC50: 7110 nM

## OC(CC1CCCCC1)c1c(C2CCC2)sc2cncn12 (racemic) [Example 8, rac-1-(2-Cyclobutylimidazo[5,1-b]thiazol-3-yl)-2-cyclohexylethan-1-ol]
[1]
  IC50: 256 nM
[2]
  IC50: 122 nM

## O[C@H](c1c(C2CC2)sc2cncn12)C1CCCCC1 [Example 1a, (S)-Cyclohexyl(2-cyclopropylimidazo[5,1-b]thiazol-3-yl)methanol]
[1]
  IC50: 115 nM
[2]
  IC50: 7.5 nM

## OC(c1cnn(C2CCCC2)c1)c1c(C2CC2)sc2cncn12 (racemic) [Example 189, rac-(1-Cyclopentyl-1H-pyrazol-4-yl)-(2-cyclopropyl-imidazo[5,1-b]thiazol-3-yl)-methanol]
[1]
  IC50: > 10200 nM
[2]
  IC50: 112 nM

## OC(c1c(C2CC2)sc2cncn12)C12CC(c3ccccc3)(C1)C2 (racemic) [Example 191, rac-(2-Cycclopropyl-imidazo[5,1-b]thiazol-3-yl)-(3-phenyl-bicyclo[1.1.1]pent-1-yl)-methanol]
[1]
  IC50: 1270 nM
[2]
  IC50: 28.6 nM

## OC(c1c(-c2cccnc2)sc2cncn12)C1CCCCC1 (racemic) [Example 124, rac-Cyclohexyl-(2-pyridin-3-yl-imidazo[5,1-b]thiazol-3-yl)-methanol]
[1]
  IC50: 881 nM
[2]
  IC50: 342 nM

## OC(c1c(C2CC2)sc2cncn12)C1CCCCC1 (racemic) [Example 1, rac-Cyclohexyl(2-cyclopropylimidazo[5,1-b]thiazol-3-yl)methanol]
[1]
  IC50: 288 nM
[2]
  IC50: 15.1 nM

## OC(CC1CCCC1)c1c(C2CC2)sc2cncn12 (racemic) [Example 24, rac-2-Cyclopentyl-1-(2-cyclopropyl-imidazo[5,1-b]thiazol-3-yl)-ethanol]
[1]
  IC50: 394 nM
[2]
  IC50: 25.6 nM

## Cc1sc2cncn2c1C(O)c1ccc(N(C)C)cc1 (racemic) [Example 58, rac-(4-Dimethylamino-phenyl)-(2-methyl-imidazo[5,1-b]thiazol-3-yl)-methanol]
[1]
  IC50: > 10200 nM
[2]
  IC50: 1430 nM

## OC(CC1CCC(C(F)(F)F)CC1)c1c(C2CC2)sc2cncn12 (racemic) [Example 42, rac-1-(2-Cyclopropyl-imidazo[5,1-b]thiazol-3-yl)-2-(4-trifluoromethyl-cyclohexyl)-ethanol]
[1]
  IC50: 520 nM
[2]
  IC50: 92.2 nM

## CC1CC(C)(C)CC1C(O)c1c(C2CC2)sc2cncn12 (stereo not shown) [Example 120, (2-Cyclopropyl-imidazo[5,1-b]thiazol-3-yl)-(2,4,4-trimethyl-cyclopentyl)-methanol]
[1]
  IC50: 247 nM
[2]
  IC50: 172 nM

## Cn1cc(C(O)c2c(C3CC3)sc3cncn23)nn1 (racemic) [Example 192, rac-(2-Cyclopropyl-imidazo[5,1-b]thiazol-3-yl)-(1-methyl-1H-[1,2,3]triazol-4-yl)-methanol]
[1]
  IC50: > 10200 nM
[2]
  IC50: 590 nM

## OC(c1c(C2CC2)sc2cncn12)C1CCCCCC1 (racemic) [Example 165, rac-Cycloheptyl-(2-cyclopropyl-imidazo[5,1-b]thiazol-3-yl)-methanol]
[1]
  IC50: 382 nM
[2]
  IC50: 14.2 nM

## CCc1sc2cncn2c1C(O)C1(C)CCCC1 (racemic) [Example 172, rac-(2-Ethyl-imidazo[5,1-b]thiazol-3-yl)-(1-methyl-cyclopentyl)-methanol]
[1]
  IC50: 28.7 nM
[2]
  IC50: 4.97 nM

## OC(c1c(C(F)(F)F)sc2cncn12)C1CCCCC1 (racemic) [Example 63, rac-Cyclohexyl-(2-trifluoromethyl-imidazo[5,1-b]thiazol-3-yl)-methanol]
[1]
  IC50: 564 nM
[2]
  IC50: 27 nM

## CCC1CCC(CC(O)c2c(C3CC3)sc3cncn23)CC1 (racemic) [Example 142, rac-1-(2-Cyclopropyl-imidazo[5,1-b]thiazol-3-yl)-2-(4-ethyl-cyclohexyl)-ethanol]
[1]
  IC50: 2000 nM
[2]
  IC50: 85.8 nM

## Cc1sc2cncn2c1C(O)C1(C)CCCC1 (racemic) [Example 140, rac-(1-Methyl-cyclopentyl)-(2-methyl-imidazo[5,1-b]thiazol-3-yl)-methanol]
[1]
  IC50: 19.9 nM
[2]
  IC50: 30 nM

## CC(C)(C)c1sc2cncn2c1C(O)C1CCCCC1 (racemic) [Example 11, rac-(2-(tert-Butyl)imidazo[5,1-b]thiazol-3-yl)(cyclohexyl)methanol]
[1]
  IC50: 2050 nM
[2]
  IC50: 895 nM

## OC(CC1CCCC1)c1c(C(F)(F)F)sc2cncn12 (racemic) [Example 111, rac-2-Cyclopentyl-1-(2-trifluoromethyl-imidazo[5,1-b]thiazol-3-yl)-ethanol]
[1]
  IC50: 2430 nM
[2]
  IC50: 101 nM

## OC(c1c(Cl)sc2cncn12)C1CCCCC1 (racemic) [Example 13, rac-(2-Chloroimidazo[5,1-b]thiazol-3-yl)(cyclohexyl)methanol]
[1]
  IC50: 172 nM
[2]
  IC50: 110 nM

## COc1cccc(CC(O)c2c(C)sc3cncn23)c1 (racemic) [Example 62, rac-2-(3-Methoxy-phenyl)-1-(2-methyl-imidazo[5,1-b]thiazol-3-yl)-ethanol]
[1]
  IC50: 7160 nM
[2]
  IC50: 3150 nM

## OC(CC1CCCCC1)c1c(C2CCCC2)sc2cncn12 (racemic) [Example 10, rac-2-Cyclohexyl-1-(2-cyclopentylimidazo[5,1-b]thiazol-3-yl)ethan-1-ol]
[1]
  IC50: 277 nM
[2]
  IC50: 384 nM

## OC(CC1CCCCCC1)c1c(C2CC2)sc2cncn12 (racemic) [Example 28, rac-2-Cycloheptyl-1-(2-cyclopropyl-imidazo[5,1-b]thiazol-3-yl)-ethanol]
[1]
  IC50: 470 nM
[2]
  IC50: 24.3 nM

## CC1(C)CCC(C(O)c2c(C3CC3)sc3cncn23)C1 (stereo not shown) [Example 47, (2-Cyclopropyl-imidazo[5,1-b]thiazol-3-yl)-(3,3-dimethyl-cyclopentyl)-methanol]
[1]
  IC50: 287 nM
[2]
  IC50: 18.8 nM

## CC1(C)CCC(CC(O)c2c(C(F)(F)F)sc3cncn23)C1 (stereo not shown) [Example 121, 2-(3,3-Dimethyl-cyclopentyl)-1-(2-trifluoromethyl-imidazo[5,1-b]thiazol-3-yl)-ethanol]
[1]
  IC50: 8490 nM
[2]
  IC50: 313 nM

## OC(c1c(Br)sc2cncn12)C1CCCCC1 (racemic) [Example 14, rac-(2-Bromoimidazo[5,1-b]thiazol-3-yl)(cyclohexyl)methanol]
[1]
  IC50: 218 nM
[2]
  IC50: 28 nM

## OC(c1cccc(Cl)c1)c1c(C2CC2)sc2cncn12 (racemic) [Example 149, rac-(3-Chloro-phenyl)-(2-cyclopropyl-imidazo[5,1-b]thiazol-3-yl)-methanol]
[1]
  IC50: 1820 nM
[2]
  IC50: 65.1 nM

## OC(c1cccs1)c1c(C2CC2)sc2cncn12 (racemic) [Example 171, rac-(2-Cyclopropyl-imidazo[5,1-b]thiazol-3-yl)-thiophen-2-yl-methanol]
[1]
  IC50: 1580 nM
[2]
  IC50: 90.3 nM

## CCc1ccc(C(O)c2c(C3CC3)sc3cncn23)cc1 (racemic) [Example 53, rac-(2-Cyclopropyl-imidazo[5,1-b]thiazol-3-yl)-(4-ethyl-phenyl)-methanol]
[1]
  IC50: 1530 nM
[2]
  IC50: 60.1 nM

## Cn1cc(-c2sc3cncn3c2C(O)C2CCCCC2)cn1 (racemic) [Example 125, rac-Cyclohexyl-[2-(1-methyl-1H-pyrazol-4-yl)-imidazo[5,1-b]thiazol-3-yl]-methanol]
[1]
  IC50: > 10200 nM
[2]
  IC50: 209 nM

## Cc1sc2cncn2c1[C@@H](O)CC1CCCCC1 [Example 5a, (S)-2-Cyclohexyl-1-(2-methyl-imidazo[5,1-b]thiazol-3-yl)-ethanol]
[1]
  IC50: 375 nM
[2]
  IC50: 16.5 nM

## OC(c1c(-c2ccccc2)sc2cncn12)C1CCCCC1 (racemic) [Example 92, rac-Cyclohexyl-(2-phenyl-imidazo[5,1-b]thiazol-3-yl)-methanol]
[1]
  IC50: 246 nM
[2]
  IC50: 382 nM

## OC(c1c(C2CC2)sc2cncn12)C1CCC2CCCCC2C1 (stereo not shown) [Example 90, (2-Cyclopropyl-imidazo[5,1-b]thiazol-3-yl)-(decahydro-naphthalen-2-yl)-methanol]
[1]
  IC50: 1080 nM
[2]
  IC50: 133 nM

## OC1CCC(CC(O)c2c(C3CC3)sc3cncn23)CC1 (racemic) [Example 152, rac-4-[2-(2-Cyclopropyl-imidazo[5,1-b]thiazol-3-yl)-2-hydroxy-ethyl]-cyclohexanol]
[1]
  IC50: 1130 nM
[2]
  IC50: 18.4 nM

From patent US11267824B2, “Inhibitors of indoleamine 2,3-dioxygenase and/or tryptophan 2,3-dioxygenase” (IDORSIA PHARMACEUTICALS LTD, priority 2017, dated 2022)
